Measured values from US5876694A, “Azavesamicols” (priority 1997, dated 1999).

What was measured:
[1] = system: cholinergic neurotransmission; test: In vivo anticholinergic activity in mice (spasms, respiratory distress, paralysis, death); design: key to Pharmacological activity in mice: LD: lethal dose; NR: no visible pharmacological reaction; +: visible anticholinergic effects; S: sluggishness and reduced locomotor activity
Experimental: in vivo anticholinergic activity was evaluated in mice. Blockade of cholinergic neurotransmission (or anticholinergic activity) was manifested in a rapidly developing respiratory distress, spasms and paralysis. At lethal doses these symptoms were followed by death within 10 min. As evident in Table 3, several of the compounds tested were lethal at doses as low as 5 and 10 umol/Kg. […] All of the potent compounds belong to the 1,4 series, an observation consistent with the in vitro data discussed above.
^a Group of mice (n = 2) received selected doses of the compounds by
activity: spasms, respiratory distress, paralysis. At lethal doses, death
generally occurred within 10 min following the injection.

[2] = molecular target: T1, vesamicol receptor (Tetronarce californica, UniProt P81721); test: Inhibition of [^3 H]vesamicol binding to highly purified synaptic vesicles (electric organ of Torpedo Californica); conditions: for in vitro potency (in words): relative to comparator compounds
T1 sequence (P81721 1-515): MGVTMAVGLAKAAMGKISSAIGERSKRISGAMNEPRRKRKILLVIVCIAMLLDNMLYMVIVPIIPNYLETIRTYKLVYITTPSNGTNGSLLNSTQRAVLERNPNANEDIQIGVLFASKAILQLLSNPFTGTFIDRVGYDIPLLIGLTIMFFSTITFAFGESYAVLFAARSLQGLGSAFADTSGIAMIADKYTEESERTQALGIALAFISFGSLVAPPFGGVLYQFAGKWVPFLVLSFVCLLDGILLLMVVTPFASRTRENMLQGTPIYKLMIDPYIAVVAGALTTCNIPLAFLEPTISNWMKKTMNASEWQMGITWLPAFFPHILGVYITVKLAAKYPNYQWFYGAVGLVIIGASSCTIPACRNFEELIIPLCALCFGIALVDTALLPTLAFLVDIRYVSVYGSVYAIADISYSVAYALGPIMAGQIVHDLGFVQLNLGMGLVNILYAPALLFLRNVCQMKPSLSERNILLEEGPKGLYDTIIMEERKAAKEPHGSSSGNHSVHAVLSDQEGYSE
From the text: vesicles harvested from the electric organ of Torpedo Californica.
^b Data obtained from Bahr and Parsons (1986).
IC50 values are quoted ±1 standard deviation.
^d Obtained from Efange et al. (1991).

[3] = system: vesamicol receptor; conditions: cited from earlier work
[4] = .60 umol/Kg (so in the source) ip
[5] = .30 umol/Kg (so in the source) ip

Structure (SMILES): O[C@H]1CN(Cc2cccc(Br)c2)CC[C@@H]1N1CCC(c2ccccc2)CC1 (relative stereo) [Compound 11c]
- Pharmacological activity in mice ([1]; 10 umol/Kg ip): NR
- Pharmacological activity in mice ([1]; 20 umol/Kg ip): NR
- Pharmacological activity in mice [1, 4]: NR
- hind leg paralysis in mice ([1]; footnote c, .60 umol/Kg (so in the source) ip): Hind legs remained visibly paralyzed
- duration of visible hind leg paralysis ([1]; postinjection, footnote c, .60 umol/Kg (so in the source) ip): at least 15 min

Structure (SMILES): O[C@H]1CN(Cc2ccccc2Br)CC[C@@H]1N1CCC(c2ccccc2)CC1 (relative stereo) [Compound 11b]
- in vitro potency (in words) [2]: slight but noticeable increase in activity
- Pharmacological activity in mice ([1]; 5.0 umol/Kg ip): NR
- Pharmacological activity in mice ([1]; 10 umol/Kg ip): +

Structure (SMILES): O[C@H]1CN(Cc2ccccc2)CC[C@@H]1N1CCC(c2ccccc2)CC1 (relative stereo) [Compound 11a]
- Pharmacological activity in mice ([1]; 10 umol/Kg ip): NR
- Pharmacological activity in mice ([1]; 20 umol/Kg ip): +

Structure (SMILES): O=C(c1ccccc1)N1CC[C@H](O)[C@@H](N2CCC(c3ccccc3)CC2)C1 (relative stereo) [Compound 10a, 1-Benzoyl-4-hydroxy-3-(4-phenylpiperidinyl)piperidine]
- Pharmacological activity in mice [1, 5]: LD

Structure (SMILES): O[C@H]1CNCC[C@@H]1N1CCC(c2ccccc2)CC1 (relative stereo) [Compound 5, 3-Hydroxy-4-(4-phenylpiperidinyl)piperidine]
- Pharmacological activity in mice [1, 5]: NR

Structure (SMILES): O[C@H]1CCN(Cc2cccc(I)c2)C[C@@H]1N1CCC(c2ccccc2)CC1 (relative stereo) [Compound 12h]
- Pharmacological activity in mice ([1]; 1.3 umol/Kg ip): NR
- Pharmacological activity in mice ([1]; 5.0 umol/Kg ip): LD

Structure (SMILES): O[C@H]1CCN(Cc2ccc(Br)cc2)C[C@@H]1N1CCC(c2ccccc2)CC1 (relative stereo) [Compound 12g, 1-(4-Bromobenzyl)-4-hydroxy-3-(4-phenylpiperidinyl)piperidine]
- Pharmacological activity in mice ([1]; 10 umol/Kg ip): +
- Pharmacological activity in mice ([1]; 20 umol/Kg ip): LD

Structure (SMILES): O=C(c1ccccc1I)N1CC[C@H](O)[C@@H](N2CCC(c3ccccc3)CC2)C1 (relative stereo) [Compound 10b, 4-Hydroxy-1-(2-iodobenzoyl)-3-(4-phenylpiperidinyl)piperidine]
- Pharmacological activity in mice ([1]; 2.5 umol/Kg ip): NR
- Pharmacological activity in mice ([1]; 20 umol/Kg ip): +

Structure (SMILES): O[C@H]1CCN(Cc2ccccc2)C[C@@H]1N1CCC(c2ccccc2)CC1 (relative stereo) [Compound 12a]
- in vitro potency (in words) [2]: increased potency
- Pharmacological activity in mice ([1]; 10 umol/Kg ip): LD

Structure (SMILES): OC(Cc1ccc(Br)cc1)CN1CCC(c2ccccc2)CC1 (racemic) [(dl)-4c]
- increase in potency ([3]; 4c relative to 4a): 59 times

Structure (SMILES): O=C(c1ccccc1)N1CC[C@@H](O)[C@H](N2CCC(c3ccccc3)CC2)C1 [(-)-10a]
- IC50 ([2]; inhibition of [^3 H]vesamicol binding, hydrochlorides, ±1 standard deviation): 100 ± 30 nM
- Pharmacological activity in mice ([1]; 5.0 umol/Kg ip): +

Structure (SMILES): O[C@H]1CCN(Cc2cccc(Br)c2)C[C@@H]1N1CCC(c2ccccc2)CC1 (relative stereo) [Compound 12f]
- Pharmacological activity in mice ([1]; 5.0 umol/Kg ip): NR
- Pharmacological activity in mice ([1]; 10 umol/Kg ip): LD

Structure (SMILES): O=C(c1ccccc1)N1CC[C@H](N2CCC(c3ccccc3)CC2)[C@@H](O)C1 (relative stereo) [Compound 9a, 1-Benzoyl-3-hydroxy-4-(4-phenylpiperidinyl)piperidine]
- Pharmacological activity in mice [1, 4]: LD

Structure (SMILES): O[C@H]1CN(Cc2ccc(Br)cc2)CC[C@@H]1N1CCC(c2ccccc2)CC1 (relative stereo) [Compound 11d]
- Pharmacological activity in mice ([1]; 10 umol/Kg ip): NR

Structure (SMILES): O=[N+]([O-])c1ccc(N2CC[C@H](O)[C@@H](N3CCC(c4ccccc4)CC3)C2)cc1 (relative stereo) [Compound 12l, 4-Hydroxy-1-(4-nitrophenyl)-3-(4-phenylpiperidinyl)piperidine]
- Pharmacological activity in mice ([1]; .15 umol/Kg (so in the source) ip): NR

Structure (SMILES): CC(C)(C)C1CC[C@@H](O)[C@H](N2CCC(c3ccccc3)CC2)C1 (stereo partly shown) [Compound 3]
- vesamicol receptor affinity (in words) ([3]; earlier studies): potent ligands

Structure (SMILES): O[C@H]1CCN(Cc2ccccc2Br)C[C@@H]1N1CCC(c2ccccc2)CC1 (relative stereo) [Compound 12e]
- Pharmacological activity in mice ([1]; 10 umol/Kg ip): LD

Structure (SMILES): O[C@H]1CCN(Cc2ccc(F)cc2)C[C@@H]1N1CCC(c2ccccc2)CC1 (relative stereo) [Compound 12d]
- in vitro potency (in words) [2]: enhances potency
- Pharmacological activity in mice ([1]; 10 umol/Kg ip): LD

Structure (SMILES): O=C(c1ccccc1)N1CC[C@H](O)[C@@H](N2CCC(c3ccccc3)CC2)C1 [(+)-10a]
- anticholinergic effects in mice ([1]; 2.5 umol/Kg): elicited anticholinergic effects
- Pharmacological activity in mice ([1]; 2.5 umol/Kg ip): +
- Pharmacological activity in mice ([1]; 5.0 umol/Kg ip): LD
- Pharmacological activity in mice [1, 5]: LD

Structure (SMILES): O[C@H]1CCNC[C@@H]1N1CCC(c2ccccc2)CC1 (relative stereo) [Compound 6]
- Pharmacological activity in mice [1, 5]: NR
